Laboratory results: patent US8466193B2, “Selective inhibitors of histone deacetylase” (Pharmacyclics, Inc., priority 2008, dated 2013)

How the values were obtained:
[1] = Pharmacokinetic analysis in male rats, oral gavage; format: in vivo; details: CD IGS (Sprague-Dawley derived), rat, plasma, orally at 3 mg/kg, compounds administered in combination
Experimental: This study, performed in male rats with test compounds (Compound 303 and Compound 316), was designed to provide preliminary information on their pharmacokinetics. The test compounds were administered in combination by oral gavage.
The specifications for rats used on this study are as follows: • Strain: CD® IGS rats (Sprague-Dawley derived) • Source: Charles River Laboratories • Surgical modification for oral dosing: One portal vein cannula and one jugular vein cannula • Body weight range at dosing 350 to 375 g
The rats were acclimatized to laboratory conditions for at least 24 hours before dosing. The evening before dosing, food was withheld from the rats and was returned immediately following the 3-hour blood collection time point. Water was provided ad libitum. The rats were housed individually in translucent polycarbonate cages.
Test compounds were prepared as 3.0 mg/ml solutions (1% MC/0.4% Cr EL in WFI).
Rats were administered a single dose of test compound in combination by oral gavage. Dose volumes were adjusted based on body weight data collected immediately prior to dosing.
The dose volume was 1 ml/kg and the nominal dosage was 3 mg/kg.
Blood samples were collected at 5 minutes, 20 minutes, 1 hour, 3 hours, 6 hours, 9 hours, and 24 hours post-dosing from orally dosed rats. The samples were collected into plasma separator Microtainer tubes with anticoagulant (lithium heparin). Plasma samples were prepared by centrifugation (5 min at 5000×g), and at least 100 μL were transferred to storage tubes and frozen on dry ice. Samples were maintained at approximately −75 C until prepared for analysis.
Plasma samples were thawed and 75 uL aliquots were transferred to centrifuge tubes to which 10 μL aliquots of internal standard solution (0.5 μg/mL) were added. The samples were not diluted with blank plasma prior to further processing. Soluble proteins were precipitated by the addition of 300 μL of methanol, followed by centrifugation (20 min at 16,000×g). The samples were evaporated to dryness and reconstituted in 100 μL of water containing 0.2% formic acid and 10% methanol. All samples were loaded onto an autosampler maintained at 6° C. and evaluated for concentrations of test compound using LC-MS/MS. lasma concentration data were evaluated using the computer program WinNonlin (Professional Edition, Pharsight Corporation, version 5.01). […]
Pan HDAC inhibitor 3-((dimethylamino)methyl)-N-(2-(4-(hydroxycarbamoyl)phenoxy)ethyl)benzofuran-2-carboxamide was added to the cassette to serve as a standard since the pharmacokinetics of this compound have been determined previously in rats. The UC's determined for rats administered Compound 303 and Compound 316 orally at 3 mg/kg were 1.42, and 5.36 μg·h/mL, respectively. […]

[2] = system: Jurkat cells; assay: Cell proliferation assay, growth inhibition by Alamar Blue; format: cell-based; details: Homo sapiens, 72 h, Jurkat cells treated with compound for 3 days
Experimental: Cell lines were obtained from DSMZ (Braunschweig, Germany) or ATCC (Manassas, Va.). Cells were grown in RPMI 1640 with 10% fetal bovine serum in a 5% CO2/air incubator at 37° C. Thapsigargin and BAPTA-AM were from Calbiochem (San Diego, Calif.). 3-((dimethylamino)methyl)-N-(2-(4-(hydroxycarbamoyl)phenoxy)ethyl)benzofuran-2-carboxamide is a broad-spectrum HDAC inhibitor which was synthesized as previously described. Other analogs with varying degrees of specificity towards the HDAC isoforms were synthesized as described herein.
Tumor cell lines and human umbilical vein endothelial cells (HUVEC) were cultured for at least two doubling times, and growth was monitored at the end of compound exposure using an Alamar Blue™ (Biosource, Camarillo, Calif.) fluorometric cell proliferation assay as recommended by the manufacturer. Compounds were assayed in triplicate wells in 96-well plates. The concentration required to inhibit cell growth by 50% (GI50) and 95% confidence intervals were estimated from nonlinear regression using a 4-parameter logistic equation. The effect of HDAC8 selective inhibitor compounds on cell proliferation in Jurkat cells was measured. Apoptosis was measured by Annexin-V flow cytommetry. Growth inhibition was measured by Alamar Blue assay. Cells were treated with compound for 3 days.

[3] = molecular target: HDAC1 (Homo sapiens, UniProt Q13547); assay: Histone deacetylase activity, continuous trypsin-coupled assay; format: biochemical; details: 15 minutes preincubation; substrate acetyl-Gly-Ala-(N-acetyl-Lys)-AMC
Chain of HDAC1 (Q13547 whole entry, species assumed): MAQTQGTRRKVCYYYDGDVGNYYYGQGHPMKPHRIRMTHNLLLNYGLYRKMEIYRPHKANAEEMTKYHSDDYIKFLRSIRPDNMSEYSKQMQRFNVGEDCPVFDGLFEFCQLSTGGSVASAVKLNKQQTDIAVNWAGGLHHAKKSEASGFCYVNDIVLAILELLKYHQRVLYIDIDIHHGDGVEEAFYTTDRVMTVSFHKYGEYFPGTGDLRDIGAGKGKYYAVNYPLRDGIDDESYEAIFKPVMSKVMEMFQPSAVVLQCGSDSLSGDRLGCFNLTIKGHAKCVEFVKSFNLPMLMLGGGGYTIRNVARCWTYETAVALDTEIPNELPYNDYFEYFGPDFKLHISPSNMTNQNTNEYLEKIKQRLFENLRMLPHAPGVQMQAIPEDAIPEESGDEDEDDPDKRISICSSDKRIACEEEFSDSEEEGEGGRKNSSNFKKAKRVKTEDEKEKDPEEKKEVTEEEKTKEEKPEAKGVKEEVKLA
Experimental: (§1) HDAC activity was measured using a continuous trypsin-coupled assay that has been described in detail previously (US 20070281934; Schultz et. al., Biochemistry, 43 (34), 11083-11091, 2004; Kim et al. (2006), Methods Mol. Biol., 325:273-283). For inhibitor characterization, measurements were performed in a reaction volume of 100 μL using 96-well assay plates in a fluorescence plate reader. For each isozyme, the HDAC protein in reaction buffer (50 mM HEPES, 100 mM KCl, 0.001% Tween-20, 5% DMSO, pH 7.4, supplemented with bovine serum albumin at concentrations of 0-0.05%, was mixed with inhibitor at various concentrations and allowed to incubate for 15 minutes. Trypsin was added to a final concentration of 50 nM, and acetyl-Gly-Ala-(N-acetyl-Lys)-AMC was added to a final concentration of 25-100 μM to initiate the reaction. After a 30 minute lag time, the fluorescence was measured over a 30 minute time frame using an excitation wavelength of 355 nm and a detection wavelength of 460 nm. The increase in fluorescence with time was used as the measure of the reaction rate. Inhibition constants Ki(app) were obtained using the program BatchKi (Biokin, Pullman, Wash.).

[4] = molecular target: T1, HDAC8 (Homo sapiens, UniProt Q9BY41); assay: as above; format: biochemical; details: 15 minutes preincubation; substrate acetyl-Gly-Ala-(N-acetyl-Lys)-AMC
T1 sequence (Q9BY41 1-377): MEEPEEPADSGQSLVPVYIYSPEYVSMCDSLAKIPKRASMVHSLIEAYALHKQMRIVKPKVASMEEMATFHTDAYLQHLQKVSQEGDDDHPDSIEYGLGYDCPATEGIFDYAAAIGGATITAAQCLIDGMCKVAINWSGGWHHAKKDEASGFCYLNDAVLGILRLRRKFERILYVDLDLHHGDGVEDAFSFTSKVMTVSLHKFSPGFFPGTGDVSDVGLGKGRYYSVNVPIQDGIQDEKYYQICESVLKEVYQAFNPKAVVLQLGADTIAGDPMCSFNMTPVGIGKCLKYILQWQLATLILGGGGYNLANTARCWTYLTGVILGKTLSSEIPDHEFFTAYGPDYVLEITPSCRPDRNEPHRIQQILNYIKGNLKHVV
Experimental: as §1

[5] = molecular target: HDAC2 (Homo sapiens, UniProt Q92769); assay: as above; format: biochemical; details: 15 minutes preincubation; substrate acetyl-Gly-Ala-(N-acetyl-Lys)-AMC
Chain of HDAC2 (Q92769 whole entry, species assumed): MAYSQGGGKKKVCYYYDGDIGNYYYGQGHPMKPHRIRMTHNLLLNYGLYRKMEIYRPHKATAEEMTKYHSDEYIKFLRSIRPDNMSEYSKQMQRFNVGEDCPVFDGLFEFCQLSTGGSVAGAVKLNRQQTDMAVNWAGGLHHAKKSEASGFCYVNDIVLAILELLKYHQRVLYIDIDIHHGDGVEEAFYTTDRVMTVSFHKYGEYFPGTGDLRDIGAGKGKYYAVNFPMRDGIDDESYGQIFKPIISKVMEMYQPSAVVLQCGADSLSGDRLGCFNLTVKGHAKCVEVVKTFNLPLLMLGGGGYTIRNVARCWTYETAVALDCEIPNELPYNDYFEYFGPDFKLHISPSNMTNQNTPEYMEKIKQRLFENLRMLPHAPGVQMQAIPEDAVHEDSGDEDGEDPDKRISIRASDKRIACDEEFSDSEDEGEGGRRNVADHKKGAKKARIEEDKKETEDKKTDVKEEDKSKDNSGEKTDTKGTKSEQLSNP
Experimental: as §1

[6] = molecular target: HDAC3 (Homo sapiens, UniProt O15379); assay: as above; format: biochemical; details: 15 minutes preincubation; substrate acetyl-Gly-Ala-(N-acetyl-Lys)-AMC
Chain of HDAC3 (O15379 whole entry, species assumed): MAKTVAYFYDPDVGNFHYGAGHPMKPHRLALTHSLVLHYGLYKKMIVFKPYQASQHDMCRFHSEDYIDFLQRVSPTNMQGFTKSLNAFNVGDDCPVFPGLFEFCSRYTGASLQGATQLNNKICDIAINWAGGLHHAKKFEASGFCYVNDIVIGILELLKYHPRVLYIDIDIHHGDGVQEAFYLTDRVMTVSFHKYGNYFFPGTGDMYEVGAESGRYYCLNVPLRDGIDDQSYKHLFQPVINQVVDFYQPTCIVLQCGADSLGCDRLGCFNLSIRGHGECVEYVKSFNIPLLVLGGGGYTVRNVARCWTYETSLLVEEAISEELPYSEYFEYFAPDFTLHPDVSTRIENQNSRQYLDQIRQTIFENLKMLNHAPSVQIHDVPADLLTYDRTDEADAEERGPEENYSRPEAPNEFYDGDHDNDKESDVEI
Chain of HDAC3 (Q9Y618 395-489 partner limits assumed, species assumed): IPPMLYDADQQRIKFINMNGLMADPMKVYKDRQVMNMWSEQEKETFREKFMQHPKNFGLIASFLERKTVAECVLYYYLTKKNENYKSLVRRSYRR
Experimental: as §1

[7] = molecular target: T2, HDAC10 (Homo sapiens, UniProt Q969S8); assay: as above; format: biochemical; details: 15 minutes preincubation; substrate acetyl-Gly-Ala-(N-acetyl-Lys)-AMC
T2 sequence (Q969S8 1-669): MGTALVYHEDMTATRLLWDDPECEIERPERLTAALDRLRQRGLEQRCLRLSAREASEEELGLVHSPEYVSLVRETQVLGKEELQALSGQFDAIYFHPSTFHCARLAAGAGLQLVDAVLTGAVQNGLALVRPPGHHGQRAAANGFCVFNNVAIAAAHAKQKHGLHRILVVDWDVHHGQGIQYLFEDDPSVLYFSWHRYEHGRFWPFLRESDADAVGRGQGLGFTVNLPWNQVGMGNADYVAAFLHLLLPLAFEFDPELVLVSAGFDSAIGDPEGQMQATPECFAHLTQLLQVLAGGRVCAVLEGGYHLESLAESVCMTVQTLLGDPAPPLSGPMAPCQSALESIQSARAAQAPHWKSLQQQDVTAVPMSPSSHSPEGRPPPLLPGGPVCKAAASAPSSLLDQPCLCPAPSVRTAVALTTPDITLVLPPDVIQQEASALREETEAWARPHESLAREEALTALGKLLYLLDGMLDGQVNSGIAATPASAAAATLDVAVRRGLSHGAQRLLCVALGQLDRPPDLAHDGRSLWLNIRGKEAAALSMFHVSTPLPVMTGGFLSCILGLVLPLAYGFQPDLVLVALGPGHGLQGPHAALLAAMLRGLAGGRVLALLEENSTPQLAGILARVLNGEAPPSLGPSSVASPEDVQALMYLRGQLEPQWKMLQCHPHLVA
Experimental: as §1

[8] = molecular target: T3, HDAC6 (Homo sapiens, UniProt Q9UBN7); assay: as above; format: biochemical; details: 15 minutes preincubation; substrate acetyl-Gly-Ala-(N-acetyl-Lys)-AMC
T3 sequence (Q9UBN7 1-1215): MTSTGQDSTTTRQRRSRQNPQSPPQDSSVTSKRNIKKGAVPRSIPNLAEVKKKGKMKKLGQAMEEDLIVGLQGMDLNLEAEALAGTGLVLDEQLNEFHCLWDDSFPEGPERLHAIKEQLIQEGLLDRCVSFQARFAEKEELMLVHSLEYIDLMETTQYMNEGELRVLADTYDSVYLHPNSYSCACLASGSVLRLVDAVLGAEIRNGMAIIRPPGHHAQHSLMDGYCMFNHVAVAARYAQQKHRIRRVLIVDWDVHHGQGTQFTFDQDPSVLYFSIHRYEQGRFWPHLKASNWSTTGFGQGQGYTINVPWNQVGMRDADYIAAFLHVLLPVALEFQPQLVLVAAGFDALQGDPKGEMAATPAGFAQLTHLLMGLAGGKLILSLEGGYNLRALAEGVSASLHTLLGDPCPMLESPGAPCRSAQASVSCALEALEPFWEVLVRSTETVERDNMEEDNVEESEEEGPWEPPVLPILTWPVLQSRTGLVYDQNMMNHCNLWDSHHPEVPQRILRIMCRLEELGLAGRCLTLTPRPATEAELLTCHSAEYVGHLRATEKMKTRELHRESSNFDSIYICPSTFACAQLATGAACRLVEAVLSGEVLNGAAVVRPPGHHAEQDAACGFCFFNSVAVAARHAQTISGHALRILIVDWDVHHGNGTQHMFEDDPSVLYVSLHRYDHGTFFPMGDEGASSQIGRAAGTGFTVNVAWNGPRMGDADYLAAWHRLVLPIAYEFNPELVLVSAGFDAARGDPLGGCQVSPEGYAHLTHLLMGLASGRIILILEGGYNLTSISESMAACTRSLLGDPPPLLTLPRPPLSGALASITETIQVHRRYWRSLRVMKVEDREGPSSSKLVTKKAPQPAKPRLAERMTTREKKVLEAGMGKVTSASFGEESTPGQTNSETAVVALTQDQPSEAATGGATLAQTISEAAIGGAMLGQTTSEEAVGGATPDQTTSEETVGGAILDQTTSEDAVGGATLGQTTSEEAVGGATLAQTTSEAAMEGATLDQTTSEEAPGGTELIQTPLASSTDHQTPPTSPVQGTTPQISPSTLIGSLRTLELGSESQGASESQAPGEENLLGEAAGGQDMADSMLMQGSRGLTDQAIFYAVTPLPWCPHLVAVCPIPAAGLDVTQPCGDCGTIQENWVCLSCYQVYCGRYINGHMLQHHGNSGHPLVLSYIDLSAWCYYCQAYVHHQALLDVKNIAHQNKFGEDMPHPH
Experimental: as §1

AUC [1]	Cmax [1]	GI50 [2]	IC50 [3]	IC50 [4]	IC50 [5]	IC50 [6]	IC50 [7]	IC50 [8]	SMILES
1420 ng·h/mL	310 ng/mL	3.5 µM							O=C(NO)c1ccc2ccn(CCCc3ccccc3)c2c1 [Compound 303, N-hydroxy-1-(3-phenyl-propyl)-1H-indole-6-carboxamide]
		7.4 µM	> 10 µM	< 1 µM	> 10 µM	> 10 µM	> 10 µM	1 to 10 µM	CN(C)Cc1cccc(OCCn2ccc3ccc(C(=O)NO)cc32)c1 [Compound 324, N-hydroxy-1-(2-(3-(dimethylaminomethyl)phenoxy)ethyl)-1H-indole-6-carboxamide]
		13.4 µM	> 10 µM	< 1 µM	> 10 µM	> 10 µM	> 10 µM	1 to 10 µM	CN(C)Cc1ccc(OCCn2ccc3ccc(C(=O)NO)cc32)cc1 [Compound 325, N-hydroxy-1-(2-(4-(dimethylaminomethyl)phenoxy)ethyl)-1H-indole-6-carboxamide]
		4.95 µM	> 10 µM	< 1 µM	> 10 µM	> 10 µM	> 10 µM	1 to 10 µM	O=C(NO)c1ccc2ccn(CCOc3cccc(CN4CCOCC4)c3)c2c1 [Compound 327, N-hydroxy-1-(2-(3-(morpholin-4-ylmethyl)phenoxy)ethyl)-1H-indole-6-carboxamide]
		20.7 µM	> 10 µM	< 1 µM	> 10 µM	> 10 µM	> 10 µM	> 10 µM	O=C(Cn1ccc2ccc(C(=O)NO)cc21)Nc1ccccc1 [Compound 329, N-hydroxy-1-(2-oxo-2-(phenylamino)ethyl)-1H-indole-6-carboxamide]
